Experimental data from publication PMC11790914, “Chemogenomics for steroid hormone receptors (NR3)” (Communications Chemistry, 2025).
Values joined by “and” are separate entries in the source; they are usually repeats but may differ in a detail not shown here. Equal values may be shown once. Read-outs that look alike come from different tables or passages of the source.

Assays:
[1] = target: T1, NR1I3 (CAR) (Homo sapiens, UniProt Q14994); test: Gal4 hybrid reporter gene assay CAR; format: cell-based; conditions: n=3
T1 construct: expressed in transfected cells; host or cells: HEK293T
T1 sequence (Q14994 109-352 limits assumed): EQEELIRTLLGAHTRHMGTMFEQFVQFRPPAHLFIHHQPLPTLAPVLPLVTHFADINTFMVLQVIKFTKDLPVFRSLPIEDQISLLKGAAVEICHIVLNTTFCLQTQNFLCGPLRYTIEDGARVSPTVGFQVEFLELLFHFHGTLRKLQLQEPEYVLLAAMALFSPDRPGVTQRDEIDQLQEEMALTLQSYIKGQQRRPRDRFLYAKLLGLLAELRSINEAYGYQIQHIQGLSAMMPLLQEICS
Protocol: Reference ligands are listed in the methods section.
HEK293T cells (ATCC, Manassas, Virgina, USA; #CRL-3216) were cultured to a maximal confluence of 70–80% in DMEM, high glucose, supplemented with 10% FCS, sodium pyruvate (1 mM), penicillin (100 U/mL), and streptomycin (100 μg/mL) at 37 °C and 5% CO2 (v/v), and seeded in clear 96-well plates (4 × 10^4 cells per well). After 20–24 h, medium was changed to Opti-MEM without supplements and the cells were transiently transfected using Lipofectamine™ LTX/Plus™ Reagents (Invitrogen, Carlsbad, California, USA; #15338100) according to the manufacturer’s protocol with pFR-Luc (reporter gene; Stratagene, Agilent Technologies, Santa Clara, California, USA; #219050), pRL-SV40 (control gene for normalization of transfection efficiency and cell growth; Promega, Fitchburg, Wisconsin, USA; #E2231) and one pFA-CMV-hNR-LBD clone coding for the hinge region and ligand binding domain (LBD) of the human NR of interest. Five hours after transfection, the cells were incubated with the NR3 CG compound candidates at the recommended concentrations by changing the medium to Opti-MEM supplemented with penicillin (100 µ/mL) and streptomycin (100 µg/mL) additionally containing 0.1% DMSO and the respective test compound or 0.1% DMSO alone as untreated control. Firefly (reporter) and renilla (control) luminescence were measured after 14–16 h incubation using the Dual-Glo® Luciferase Assay System (Promega, Fitchburg, Wisconsin, USA; #E2980) according to manufacturer’s protocol on a Tecan Spark® 10M multimode microplate reader (Tecan Group AG, Männedorf, Switzerland). To obtain relative light units (RLU) firefly luminescence was divided by renilla luminescence and multiplied by 1000. Fold activation was obtained by dividing the mean RLU of a test sample by the mean RLU of the DMSO (0.1%) control. Experiments were performed in singlets in at least three biologically independent repeats. […]

[2] = target: T2, TRIM24 (Homo sapiens, UniProt O15164); test: Liability panel screening by DSF: TRIM24; format: binding; conditions: DSF, 20 µM, n=2; for ΔTm at 20 µM: read-out: Mean ΔTM TRIM24
T2 construct: This panel comprised ten highly ligandable kinases and bromodomains; made in house
T2 sequence (O15164 899-1004 limits assumed): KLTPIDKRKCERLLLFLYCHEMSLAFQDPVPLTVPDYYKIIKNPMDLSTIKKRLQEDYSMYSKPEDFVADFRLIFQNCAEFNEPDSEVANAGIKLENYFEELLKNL
Procedure, shortened: (§1)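 Recombinant protein at 2 µM in 10 mM HEPES pH 7.5 with 500 mM NaCl was mixed with SYPRO Orange (1:1000) and heated at 3 °C/min up to 85 °C. Tm was taken as the Boltzmann-fit inflection point. Shifts are ∆Tm in K from technical duplicates.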

[3] = tested on: HEK293T cells; test: Cytotoxicity: metabolic activity (WST-8 / CCK-8 assay); conditions: single replicates
[4] = target: T3, FGFR3 (Homo sapiens, UniProt P22607); test: Liability panel screening by DSF: FGFR3; format: binding; conditions: DSF, 20 µM, n=2; for ΔTm at 20 µM: read-out: Mean ΔTM FGFR3
T3 construct: made in house
T3 sequence (P22607 23-806, species assumed): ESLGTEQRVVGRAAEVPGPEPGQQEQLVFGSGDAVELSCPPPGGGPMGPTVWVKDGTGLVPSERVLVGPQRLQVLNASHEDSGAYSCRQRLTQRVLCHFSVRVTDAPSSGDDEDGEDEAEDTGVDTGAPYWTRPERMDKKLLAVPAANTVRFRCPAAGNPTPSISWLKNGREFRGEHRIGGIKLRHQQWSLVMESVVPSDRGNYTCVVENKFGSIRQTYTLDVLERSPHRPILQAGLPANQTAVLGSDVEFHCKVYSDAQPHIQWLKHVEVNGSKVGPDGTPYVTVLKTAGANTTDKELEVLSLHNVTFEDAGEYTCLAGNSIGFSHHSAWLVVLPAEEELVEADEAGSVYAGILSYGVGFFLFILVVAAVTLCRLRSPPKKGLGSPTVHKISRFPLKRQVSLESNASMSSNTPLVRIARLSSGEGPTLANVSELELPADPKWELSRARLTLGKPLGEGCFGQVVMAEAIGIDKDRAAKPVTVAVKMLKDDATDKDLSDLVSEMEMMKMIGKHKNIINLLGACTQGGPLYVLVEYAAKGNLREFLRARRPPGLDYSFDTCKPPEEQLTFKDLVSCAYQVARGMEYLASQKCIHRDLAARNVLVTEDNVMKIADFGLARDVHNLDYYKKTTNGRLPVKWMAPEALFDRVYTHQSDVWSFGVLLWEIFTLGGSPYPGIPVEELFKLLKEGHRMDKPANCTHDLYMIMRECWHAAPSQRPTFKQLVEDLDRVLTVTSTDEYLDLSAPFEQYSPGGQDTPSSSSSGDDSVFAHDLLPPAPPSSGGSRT
Procedure, shortened: as §1

[5] = tested on: NR3A1 (ERα); conditions: cited from earlier work; for IC50: read-out: Potency [nM] IC50, NR3A1 (ERα)
[6] = tested on: HEK293T cells; test: Evaluation of cytotoxicity (overall: growth-rate, metabolic activity, apoptosis, necrosis); format: cell-based; conditions: 24 h; for effects on growth-rate, metabolic activity and necrosis: HEK293T, budesonide (3 µM), others at tested concentration
Protocol: The selection of 40 CG candidates was acquired from commercial vendors (purity ≥95%) and applied to initial toxicity screening. Cytotoxicity was determined in HEK293T cells considering growth-rate, metabolic activity as well as apoptosis and/or necrosis induction to evaluate suitability of the compounds for CG application in cellular settings (Fig. 3a–d, Supplementary Fig. 1, Supplementary Data 1). The candidates were generally well tolerated at concentrations >>EC50/IC50 that we recommend for CG application with only four compounds showing mild toxic effects. […] In terms of cytotoxicity, all candidates thus appeared suitable for inclusion in an NR3 CG set.

[7] = 3 µM, HEK293T, 24 h, WST-8, normalized to 0.1% DMSO
[8] = 1 µM, HEK293T, 24 h, WST-8, normalized to 0.1% DMSO
[9] = 0.3 µM, HEK293T, 24 h, WST-8, normalized to 0.1% DMSO

In the case of `C/C=C1\C(=O)C[C@H]2[C@@H]3CCC4=CC(=O)CC[C@]4(C)[C@H]3CC[C@]12C` [Z-Guggulsterone], the “Activity on NR1I3 (CAR)” value ([1]; 3 µM) is reported as -0.48 mean log10(fold reporter gene activity), the “Mean ΔTM TRIM24” value [2] is reported as -2.32 K and the “Metabolic activity [MA]” value ([3]; 3 µM, DMSO 0.1% = 1.00) is reported as 1.00 and 0.94 and 1.08 and 1.06 and 1.18 and 1.15.
In the case of `CCN(CC)c1ccc(/C=N/NC(=O)c2ccc(O)cc2)cc1` [DY131], the ΔTm at 20 µM [2] is reported as -3.28 °C, the “Metabolic activity [MA]” value [3, 7] is reported as 0.98 and 0.95 (2×) and 0.82 and 0.96 and 0.93 and 0.87 and 0.92 and the ΔTm at 20 µM [4] is reported as 0.00876 °C.
For `COc1ccc(-c2coc3cc(O)cc(O)c3c2=O)cc1` [Biochanin A], the “Activity on NR1I3 (CAR)” value ([1]; 10 µM) was -0.24 mean log10(fold reporter gene activity), the “Mean ΔTM TRIM24” value [2] was 2.59 K and the “Metabolic activity [MA]” value ([3]; 10 µM, DMSO 0.1% = 1.00) was 0.87 and 0.81 and 1.01 and 0.90 and 1.15 and 0.98. For the same molecule, the “Mean ΔTM FGFR3” value [4] was 1.13 K.
In the case of `C[C@@H]1Cc2c([nH]c3ccccc23)[C@@H](c2c(F)cc(/C=C/C(=O)O)cc2F)N1CC(C)(C)F` [AZD9496], the IC50 [5] is given as 0.28 ± 0.04 nM, the ΔTm at 20 µM [2] is given as -0.62 °C and the “Metabolic activity [MA]” value [3, 8] is given as 1.04 (3×) and 1.02 and 0.97 and 0.99 and 1.00 (2×). The “effects on growth-rate, metabolic activity and necrosis” value [6] was “without relevant effects” and the ΔTm at 20 µM [4] was 0.58 °C.
In the case of `CC#C[C@]1(O)CC[C@H]2[C@@H]3CCC4=CC(=O)CCC4=C3[C@@H](c3ccc(N(C)C)cc3)C[C@@]21C` [Mifepristone], the ΔTm at 20 µM [2] is reported as -0.92 °C, the “Metabolic activity [MA]” value [3, 7] is reported as 1.08 and 1.01 and 1.00 and 1.09 and 1.04 and 1.03 and 1.16 (2×) and the ΔTm at 20 µM [4] is reported as 0.14 °C.
In the case of `CC/C(=C(\c1ccc(O)cc1)c1ccc(OCCN(C)C)cc1)c1ccccc1` [(Z)-4-Hydroxytamoxifen], the “Activity on NR targets outside NR3 family [mean log10(fold reporter gene activity)] NR1I3 (CAR)” value ([1]; 3 µM, vs. DMSO ctrl) is given as 1.13 log10(fold reporter gene activity), the IC50 [5] is given as 2 ± 1 nM and the ΔTm at 20 µM [2] is given as -0.41 °C. For the same molecule, the “Metabolic activity [MA]” value [3, 9] was 1.00 and 1.02 and 0.89 and 0.98 and 0.96 and 0.95 and 1.06 and 0.84, the “Metabolic activity [MA]” value [3, 7] was 0.88 and 0.94 and 0.92 and 0.98 and 0.96 and 0.89 and 1.00 and 0.84 and the ΔTm at 20 µM [4] was 0.53 °C.
In the case of `Cc1ccc2c(NC[C@](O)(CC(C)(C)c3cc(F)cc4c3OCC4)C(F)(F)F)cccc2n1` [Mapracorat], the ΔTm at 20 µM [2] is reported as -0.84 °C, the “Metabolic activity [MA]” value [3, 8] is reported as 1.04 and 1.02 (2×) and 0.95 and 0.98 (2×) and 0.94 and 1.03 and the ΔTm at 20 µM [4] is reported as -1.28 °C.
For `CC/C(=C(/CC)c1ccc(O)cc1)c1ccc(O)cc1` [Diethylstilbestrol], the ΔTm at 20 µM [2] was 1.49 °C, the “Metabolic activity [MA]” value [3, 9] was 1.04 (3×) and 0.90 and 0.95 and 1.03 and 0.96 and 1.14 and the “Metabolic activity [MA]” value [3, 7] was 0.90 and 0.94 and 1.10 and 1.00 (2×) and 0.60 and 0.78. The “Cytotoxicity in HEK293T cells” value ([6]; 0.3 µM) was “non-toxic” and the ΔTm at 20 µM [4] was -8.29 °C.
In the case of `CC/C(=C(/c1ccc(/C=C/C(=O)O)cc1)c1ccc2[nH]ncc2c1)c1ccc(F)cc1Cl` [ARN810], the IC50 ([5]; (lit.), ref Supplementary Table 1) is given as 6 nM, the “rel. activity from literature, NR3A1 (ERα): % ERα remaining” value ([5]; ERα remaining (degrader), ref Supplementary Table 1) is given as 9% and the ΔTm at 20 µM [2] is given as 0 °C. The “Metabolic activity [MA]” value ([3]; 1 µM, DMSO 0.1% = 1.00) was 0.99 and 1.09 and 0.98 and 0.97 and 1.01 and 1.03 and the ΔTm at 20 µM [4] was -5.4 °C.
In the case of `COc1cc(/C=C(\C#N)C(=O)Nc2nnc(C(F)(F)F)s2)ccc1OCc1ccc(C(F)(F)F)cc1C(F)(F)F` [XCT790], the ΔTm at 20 µM [2] is reported as 0.29 °C, the “Metabolic activity [MA]” value [3, 8] is reported as 1.06 and 0.99 and 0.98 and 1.09 and 1.00 and 1.02 and 1.05 and 1.01 and the ΔTm at 20 µM [4] is reported as 0.83 °C.
For `CCCC1O[C@@H]2C[C@H]3[C@@H]4CCC5=CC(=O)C=C[C@]5(C)[C@H]4[C@@H](O)C[C@]3(C)[C@]2(C(=O)CO)O1` (stereo partly drawn) [Budesonide], the ΔTm at 20 µM [2] was -0.81 °C, the “Metabolic activity [MA]” value ([3]; 0.3 µM, DMSO 0.1% = 1.00) was 1.02 and 0.97 and 1.07 and 0.99 and 1.12 and 1.03 and the “Metabolic activity [MA]” value ([3]; 3 µM, DMSO 0.1% = 1.00) was 0.86 and 0.88 and 1.03 (2×) and 1.13 and 0.99. For the same molecule, the “effects on growth-rate, metabolic activity and necrosis” value [6] was “without relevant effects” and the ΔTm at 20 µM [4] was -0.77 °C.
